# Where a name gives a salt, the structure may show the parent alone.
# Legend:
# [1] = system: E. coli ATCC 25922 (none); test: MIC microbroth dilution; β-lactamase class none; type: cell-based; conditions: Escherichia coli, ATCC25922, E. coli ATCC 25922; Cefepime + 4 ug/ml Compound 2; read-out: MIC
# Protocol: (§1) The in vitro activities of the antibiotics were determined by the microbroth dilution method as recommended by the National Committee for Clinical Laboratory Standards (NCCLS). (NCCLS. 2000. Methods for Dilution Antimicrobial Susceptibility Tests for Bacteria That Grow Aerobically; Approved Standards: M7-A5, vol. 19. National Committee for Clinical Laboratory Standards, Villanova, Pa.). Mueller-Hinton II broth (MHBII)(BBL Cockeysville, Md.), was used for the testing procedure. […]. The plates were incubated for 18-22 hours at 35° C. in ambient air.
# E. coli GC 2804 (imp) = test: MIC microbroth dilution; β-lactamase class none; type: cell-based; conditions: Escherichia coli, Cefepime + 4 ug/ml Compound 2
# Protocol: as §1
# E. coli GC 2844 (none) = test: MIC microbroth dilution; β-lactamase class none; type: cell-based; conditions: Escherichia coli, Cefepime + 4 ug/ml Compound 2, read-out: MIC
# Protocol: as §1
# [2] = system: K. pn GC 1963 (TEM-10 + SHV-1 + SHV-ESBL); test: MIC microbroth dilution; β-lactamase class A, A (ESBL); type: cell-based, K. pneumoniae; conditions: Klebsiella pneumoniae, Cefepime + 4 ug/ml Compound 2, read-out: MIC
# Protocol: as §1
# [3] = system: K. pn GC 2006 (TEM-10 + SHV-1); test: as above; type: cell-based, K. pneumoniae; conditions: Klebsiella pneumoniae, Cefepime + 4 ug/ml Compound 2, read-out: MIC
# Protocol: as §1
# [4] = system: K. pn GC 6488 (TEM-1 + SHV-5 + SHV-7); test: as above; type: cell-based, K. pneumoniae; conditions: Klebsiella pneumoniae, Cefepime + 4 ug/ml Compound 2, read-out: MIC
# Protocol: as §1
# [5] = system: K. pn GC 6651 (TEM-1 + SHV-1 + SHV-5); test: as above; type: cell-based, K. pneumoniae; conditions: Klebsiella pneumoniae, Cefepime + 4 ug/ml Compound 2, read-out: MIC
# Protocol: as §1
# [6] = system: K. pneumoniae GC 7635 SHV-1, KPC2; test: MIC microbroth dilution; β-lactamase class A, A (Cb'ase); type: cell-based; conditions: Klebsiella pneumoniae, Cefepime + 4 ug/ml Compound 2, read-out: MIC
# Protocol: as §1
# [7] = system: K. pneumoniae GC 7632 TEM-1 KPC-2, SHV-7, SHV-12; test: MIC microbroth dilution; β-lactamase class A, A (Cb'ase), A (ESBL); type: cell-based; conditions: Klebsiella pneumoniae, Cefepime + 4 ug/ml Compound 2, read-out: MIC
# Protocol: as §1
# [8] = system: E. aerogenes 1697-MP GC 7845 AmpC; test: MIC microbroth dilution; β-lactamase class C; type: cell-based; conditions: Klebsiella aerogenes; E. aerogenes GC 7845; Cefepime + 4 ug/ml Compound 2; read-out: MIC
# How it was run: (§2)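 MIC endpoints were read after 18-22 hours of incubation (35° C., ambient air) in Mueller-Hinton II broth microdilution plates run to NCCLS M7-A5.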
# E. cloacae GC 1475 (P99) = test: MIC microbroth dilution; β-lactamase class C; type: cell-based; conditions: Enterobacter cloacae, Cefepime + 4 ug/ml Compound 2, read-out: MIC
# How it was run: as §2
# [9] = system: E. cloacae GC 4142 (AmpC); test: MIC microbroth dilution; β-lactamase class C; type: cell-based; conditions: Enterobacter cloacae, Cefepime + 4 ug/ml Compound 2, read-out: MIC
# How it was run: as §2
# E. coli GC 2894 (AmpC) = test: MIC microbroth dilution; β-lactamase class C; type: cell-based; conditions: Escherichia coli, Cefepime + 4 ug/ml Compound 2, read-out: MIC
# How it was run: as §2
# E. coli GC 6539 CMY-2 = test: MIC microbroth dilution; β-lactamase class C; type: cell-based; conditions: Escherichia coli, GC6539CMY2, Cefepime + 4 ug/ml Compound 2, read-out: MIC
# How it was run: as §2
# [10] = system: K. pneumoniae GC 7823 Fox 5; test: MIC microbroth dilution; β-lactamase class C; type: cell-based; conditions: Klebsiella pneumoniae, GC7823FOX5, K. pneumoniae GC 7823; Cefepime + 4 ug/ml Compound 2; read-out: MIC
# How it was run: as §2
# [11] = system: K. pneumoniae GC 7824 Fox 5; test: MIC microbroth dilution; β-lactamase class C; type: cell-based; conditions: Klebsiella pneumoniae, GC7824FOX5, Cefepime + 4 ug/ml Compound 2, read-out: MIC
# How it was run: as §2
# [12] = system: P. aeruginosa GC 1764 (AmpC); test: MIC microbroth dilution; β-lactamase class C; type: cell-based; conditions: Pseudomonas aeruginosa, Cefepime + 4 ug/ml Compound 2, read-out: MIC
# How it was run: as §2
# [13] = system: P. aeruginosa GC 3153 Inducible AmpC; test: MIC microbroth dilution; β-lactamase class C; type: cell-based; conditions: Pseudomonas aeruginosa, Cefepime + 4 ug/ml Compound 2, read-out: MIC
# How it was run: as §2
# [14] = system: S. marcescens GC 4132 (AmpC); test: MIC microbroth dilution; β-lactamase class C; type: cell-based; conditions: Serratia marcescens, Cefepime + 4 ug/ml Compound 2, read-out: MIC
# How it was run: as §2
# [15] = system: S. marcescens GC 4145 Inducible AmpC; test: MIC microbroth dilution; β-lactamase class C; type: cell-based; conditions: Serratia marcescens, Cefepime + 4 ug/ml Compound 2, read-out: MIC
# How it was run: as §2
# [16] = system: S. marcescens PT 696 Inducible AmpC; test: MIC microbroth dilution; β-lactamase class C; type: cell-based; conditions: Serratia marcescens, Cefepime + 4 ug/ml Compound 2, read-out: MIC
# How it was run: as §2
# [17] = system: C. freundii GC 4171 TEM-1 + InducibleAmpC; test: MIC microbroth dilution; β-lactamase class A, C; type: cell-based; conditions: Citrobacter freundii
# Protocol: as §1
# [18] = system: K. pn GC 3104 (MIR-1 + TEM-1); test: MIC microbroth dilution; β-lactamase class A, C; type: cell-based, K. pneumoniae; conditions: Klebsiella pneumoniae, Cefepime + 4 ug/ml Compound 2, read-out: MIC
# Protocol: as §1
# [19] = system: K. pn GC 6655 (TEM-1 + ACT-1); test: MIC microbroth dilution; β-lactamase class A, C; type: cell-based, K. pneumoniae; conditions: Klebsiella pneumoniae, Cefepime + 4 ug/ml Compound 2, read-out: MIC
# Protocol: as §1
# [20] = system: E. aerogenes GC 7036 TEM-24, Amp C inducable; test: MIC microbroth dilution; β-lactamase class A (ESBL), C; type: cell-based; conditions: Klebsiella aerogenes, Cefepime + 4 ug/ml Compound 2, read-out: MIC
# Protocol: as §1
# [21] = system: E. aerogenes GC 7039 TEM-4, Amp C inducable; test: as above; type: cell-based; conditions: Klebsiella aerogenes, Cefepime + 4 ug/ml Compound 2, read-out: MIC
# Protocol: as §1
# [22] = system: E. cloacae GC 7052 SHV-5, Amp C inducable; test: as above; type: cell-based; conditions: Enterobacter cloacae, Cefepime + 4 ug/ml Compound 2, read-out: MIC
# Protocol: as §1
# [23] = system: E. cloacae GC 7065 TEM-26, SHV-12 Amp C inducable; test: as above; type: cell-based; conditions: Enterobacter cloacae, Cefepime + 4 ug/ml Compound 2, read-out: MIC
# Protocol: as §1
# [24] = system: M. morganii GC 1617 TEM-10 + inducible AmpC; test: as above; type: cell-based; conditions: Morganella morganii, Cefepime + 4 ug/ml Compound 2, read-out: MIC
# Protocol: as §1
# [25] = system: S. marcescens GC 1781 (Sme-1 + AmpC); test: MIC microbroth dilution; β-lactamase class A (Cb'ase), C; type: cell-based; conditions: Serratia marcescens, Cefepime + 4 ug/ml Compound 2, read-out: MIC
# Protocol: as §1
# [26] = system: E. coli GAR 6649 TEM, OXA, CTX (By PCR only); test: MIC microbroth dilution; β-lactamase class A, A (ESBL), D; type: cell-based; conditions: Escherichia coli, Cefepime + 4 ug/ml Compound 2, read-out: MIC
# Protocol: as §1
# [27] = system: A. baumannii GC 6660 IMI-R; test: MIC microbroth dilution; class PBP (penicillin binding protein); type: cell-based; conditions: Acinetobacter baumannii, GC6660IMIR, Cefepime + 4 ug/ml Compound 2, read-out: MIC
# Protocol: as §1
# [28] = system: A. baumannii GC 6661 IMI-R; test: as above; type: cell-based; conditions: Acinetobacter baumannii, GC6661IMIR, Cefepime + 4 ug/ml Compound 2, read-out: MIC
# Protocol: as §1
# [29] = system: A. baumannii GC 6662 IMI-R; test: as above; type: cell-based; conditions: Acinetobacter baumannii, GC6662IMIR, Cefepime + 4 ug/ml Compound 2, read-out: MIC
# Protocol: as §1
smiles,measurement,setting,value
"O=C(O)C1=CS[C@@H]2/C(=C\c3cn4c(n3)COCC4)C(=O)N12 [Compound 2, (5R), (6Z)-6-(5,6-Dihydro-8H-imidazo[2.1-c][1,4]oxazin-2-ylmethylene)-7-oxo-4-thia-1-azabicyclo[3.2.0]hept-2-ene-2-carboxylic Acid, Sodium Salt]",MIC,[1],0.06 µg/mL
same,MIC,E. coli GC 2804 (imp),< 0.015 µg/mL
same,MIC,E. coli GC 2844 (none),0.06 µg/mL
same,MIC,[2],0.25 µg/mL
same,MIC,[3],0.25 µg/mL
same,MIC,[4],0.5 µg/mL
same,MIC,[5],0.12 µg/mL
same,MIC,[6],4 µg/mL
same,MIC,[7],> 16 µg/mL
same,MIC,[8],0.03 µg/mL
same,MIC,E. cloacae GC 1475 (P99),0.12 µg/mL
same,MIC,[9],0.12 µg/mL
same,MIC,E. coli GC 2894 (AmpC),0.06 µg/mL
same,MIC,E. coli GC 6539 CMY-2,0.06 µg/mL
same,MIC,[10],0.12 µg/mL
same,MIC,[11],0.25 µg/mL
same,MIC,[12],1 µg/mL
same,MIC,[13],8 µg/mL
same,MIC,[14],0.12 µg/mL
same,MIC,[15],0.25 µg/mL
same,MIC,[16],0.06 µg/mL
same,MIC,[17],0.06 µg/mL
same,MIC,[18],0.5 µg/mL
same,MIC,[19],0.12 µg/mL
same,MIC,[20],0.06 µg/mL
same,MIC,[21],0.06 µg/mL
same,MIC,[22],1 µg/mL
same,MIC,[23],0.06 µg/mL
same,MIC,[24],0.12 µg/mL
same,MIC,[25],0.06 µg/mL
same,MIC,[26],1 µg/mL
same,MIC,[27],> 16 µg/mL
same,MIC,[28],16 µg/mL
same,MIC,[29],> 16 µg/mL
